Laboratory results published in the Kinase Knowledgebase extract (Sharma et al. 2016).
pKi: −log10 of the molar value.

These compounds were tested against PIK3CG (human) (UniProt P48736) (assay: Inhibition of PIK3CG Kinase Activity).
Sequence of PIK3CG (human) (P48736 whole entry, looked up): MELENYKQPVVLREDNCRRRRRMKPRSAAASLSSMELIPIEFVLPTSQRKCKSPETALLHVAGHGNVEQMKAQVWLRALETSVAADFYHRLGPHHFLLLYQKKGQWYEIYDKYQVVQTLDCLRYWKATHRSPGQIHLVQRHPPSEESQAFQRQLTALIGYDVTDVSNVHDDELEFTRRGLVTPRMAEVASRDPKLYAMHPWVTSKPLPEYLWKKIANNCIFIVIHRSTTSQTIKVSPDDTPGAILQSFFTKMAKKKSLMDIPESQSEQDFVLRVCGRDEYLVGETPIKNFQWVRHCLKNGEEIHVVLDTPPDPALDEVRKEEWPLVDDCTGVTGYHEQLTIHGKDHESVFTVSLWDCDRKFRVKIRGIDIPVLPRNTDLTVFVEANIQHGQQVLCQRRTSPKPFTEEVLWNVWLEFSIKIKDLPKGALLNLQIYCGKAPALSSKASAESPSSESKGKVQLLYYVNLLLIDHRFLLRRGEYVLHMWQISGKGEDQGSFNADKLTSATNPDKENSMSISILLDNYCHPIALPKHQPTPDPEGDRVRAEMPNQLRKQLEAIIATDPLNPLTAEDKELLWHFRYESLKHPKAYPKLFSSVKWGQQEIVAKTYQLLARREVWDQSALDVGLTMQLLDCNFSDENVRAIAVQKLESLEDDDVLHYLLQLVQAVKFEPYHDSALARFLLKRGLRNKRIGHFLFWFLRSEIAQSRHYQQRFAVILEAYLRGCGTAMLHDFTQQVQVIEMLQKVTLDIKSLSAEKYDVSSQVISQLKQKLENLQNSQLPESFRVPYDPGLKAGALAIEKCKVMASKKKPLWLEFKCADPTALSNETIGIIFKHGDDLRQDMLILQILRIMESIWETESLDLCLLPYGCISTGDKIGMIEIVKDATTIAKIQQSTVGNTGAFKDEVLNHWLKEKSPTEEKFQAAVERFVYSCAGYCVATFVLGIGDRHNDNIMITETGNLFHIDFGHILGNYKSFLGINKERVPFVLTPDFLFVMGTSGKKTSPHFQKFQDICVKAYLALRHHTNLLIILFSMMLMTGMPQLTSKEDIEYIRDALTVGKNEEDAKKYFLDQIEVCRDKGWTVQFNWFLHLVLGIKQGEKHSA
For `COc1cncc(-c2cc(C)c3c(n2)C(OCCO)N(c2cnn(CC(F)(F)F)c2)C3=O)c1` (stereo not given), the pKi was > 7.00. With `COc1ccc(-c2cc(C)c3c(c2)CN(c2cnn(CC(F)(F)F)c2)C3=O)nc1OC` the pKi was > 7.00. `COc1cc(-c2ccc3c(n2)CN(c2ccn(C[C@@H](C)O)n2)C3=O)cnc1OC` was tested, and the pKi was > 7.00. In the case of `COC(=O)Cc1cncc(N2Cc3nc(-c4cnc(OC)c(OC)c4)ccc3C2=O)c1`, the pKi was > 7.00. For `CCOc1ncc(-c2cc(C)c3c(n2)C(OC(C)C)N(c2cnn(CC(F)(F)F)c2)C3=O)cc1OC` (stereo not given), the pKi was > 7.00. With `COc1cc(-c2cc(C)c3c(n2)CN(c2ccnc(C4(C#N)CC4)c2)C3=O)cnc1OC` the pKi was > 7.00. For `COc1cc(-c2cc(C)c3c(n2)CN(c2cnn(C(C)(C)C(N)=O)c2)C3=O)cnc1OC`, the pKi was > 7.00. For `COc1cc(-c2ccc3c(n2)C(C)N(c2cnn(CC#N)c2)C3=O)cnc1OC` (stereo not given), the pKi was > 7.00. For `COCCOCCOc1ncc(-c2cc(C)c3c(n2)C(C)N(c2cnn(CC(F)(F)F)c2)C3=O)cc1OC` (stereo not given), the pKi was > 7.00. For `CCCOC1c2nc(-c3cnc(OC)c(OC)c3)cc(C)c2C(=O)N1c1cnn(CC(F)(F)F)c1` (stereo not given), the pKi was > 7.00. `CCNC(=O)c1cc(-c2cc(C)c3c(n2)C2(COC2)N(c2cnn(CC(F)(F)F)c2)C3=O)cnc1C` was tested, and the pKi was > 7.00. In the case of `CCCCOCCOc1cc(-c2cc(C)c3c(n2)CN(c2cnn(CC(F)(F)F)c2)C3=O)cnc1OC`, the pKi was > 7.00. `COc1cc(-c2ccc3c(n2)CN(c2cncc(CN4CCOCC4)c2)C3=O)cnc1OC` gave a pKi of 6.31 to 7.00. In the case of `COc1cc(-c2ccc3c(n2)CN(c2ccn(C)n2)C3=O)cnc1OC`, the pKi was > 7.00. For `COc1cc(-c2ccc3c(n2)[C@@H](C)N(c2cnn(CC(C)(C)O)c2)C3=O)cnc1OC`, the pKi was > 7.00. With `COc1cc(-c2cc(C)c3c(n2)C2(CC2)N(c2cnn(CC(F)(F)F)c2)C3=O)cnc1OC(C)C` the pKi was > 7.00. `CCOc1ncc(-c2cc(C)c3c(n2)CN(c2cnn(CC#N)c2)C3=O)cc1OC` was tested, and the pKi was > 7.00. `COc1ncc(-c2cc(C)c3c(n2)CN(c2ccn(C4COC4)n2)C3=O)cc1OC(C)C` was tested, and the pKi was > 7.00. With `COc1cc(-c2ccc3c(n2)CN(c2cnn(CCn4cccc4)c2)C3=O)cnc1OC` the pKi was > 7.00. In the case of `CCOc1ncc(-c2cc(C)c3c(n2)C2(CCCO2)N(c2cnn(CC(F)(F)F)c2)C3=O)cc1OC` (stereo not given), the pKi was > 7.00. With `COc1cncc(-c2cc(C)c3c(n2)CN(c2cnn(CC#N)c2)C3=O)c1` the pKi was > 7.00. In the case of `Cc1cc(-c2cc(O)cc(OC(F)(F)F)c2)nc2c1C(=O)N(c1cnn(CC(F)(F)F)c1)C2`, the pKi was > 7.00. For `COc1cncc(-c2cc(C)c3c(n2)CN(c2ccn(CC(F)(F)F)n2)C3=O)c1`, the pKi was > 7.00. With `Cc1cc(-c2cncc(OCC(F)F)c2)nc2c1C(=O)N(c1cnn(CC(F)F)c1)C2` the pKi was > 7.00. With `COc1cncc(-c2cc(C)c3c(n2)C(C)(C)N(c2cnn([C@@H]4CCOC4)c2)C3=O)c1` the pKi was > 7.00. With `CCn1cc(N2Cc3nc(-c4cnc(OCCOC)c(OC)c4)cc(C)c3C2=O)cn1` the pKi was > 7.00. `Cc1cc(-c2cncc(NC(=O)C(C)C)c2)nc2c1C(=O)N(c1cnn(CC(F)(F)F)c1)C2(C)C` gave a pKi of 6.31 to 7.00. For `COc1cc(-c2ccc3c(n2)CN(c2ccc(N4CCN(C)CC4)nc2)C3=O)cnc1OC`, the pKi was > 7.00. With `COc1cc(-c2cc(C)c3c(n2)CN(c2cnn(CC(F)(F)F)c2)C3=O)cc(OC)n1` the pKi was > 7.00. With `Cc1cc(-c2cncc(C#N)c2)nc2c1C(=O)N(c1cnn(CC#N)c1)C2` the pKi was > 7.00. `CCOc1cc(-c2cc(C)c3c(n2)C(C)(C)N(c2cnn(CC(F)(F)F)c2)C3=O)cnc1C` was tested, and the pKi was > 7.00. `CCOc1ncc(-c2ccc3c(n2)C(C)N(c2cnn(CC(F)(F)F)c2)C3=O)cc1OC` (stereo not given) was tested, and the pKi was > 7.00. In the case of `COc1cncc(-c2cc(C)c3c(n2)CN(c2cc[nH]n2)C3=O)c1`, the pKi was > 7.00. `COc1cc(-c2ccc3c(n2)[C@@H](C)N(c2ccn(CC(C)(C)F)n2)C3=O)cnc1OC` was tested, and the pKi was > 7.00. Work on `COc1cc(-c2ccc3c(c2)CN(c2cccnc2)C3=O)cnc1OC` yielded a pKi of 6.31 to 7.00. `COc1cncc(N2Cc3nc(-c4cnc(OC)c(OC)c4)cc(C)c3C2=O)c1` was tested, and the pKi was > 7.00. In the case of `CCn1cc(N2Cc3nc(-c4cnc(OC)c(OC)c4)ccc3C2=O)ccc1=O`, the pKi was > 7.00. `CCc1cc(N2Cc3nc(-c4cnc(OC)c(OC)c4)ccc3C2=O)nn1C[C@H](C)O` was tested, and the pKi was > 7.00. In the case of `CCn1cc(N2Cc3nc(-c4cncc(OCC(F)(F)F)c4)cc(C)c3C2=O)cn1`, the pKi was > 7.00. `COc1cncc(-c2cc(C)c3c(n2)C(C)(C)N(c2ccn([C@@H]4CCOC4)n2)C3=O)c1` showed a pKi of 6.31 to 7.00. In the case of `COCCn1ccc(N2Cc3nc(-c4cnc(OC)c(OC)c4)ccc3C2=O)n1`, the pKi was 6.31 to 7.00. With `CCn1cc(N2Cc3nc(-c4cncc(OC)c4)cc(C)c3C2=O)cn1` the pKi was > 7.00. For `COc1cc(-c2cc(C)c3c(n2)[C@](C)(O)N(c2cnn(CC(F)(F)F)c2)C3=O)cnc1OC`, the pKi was > 7.00. With `CCOc1ncc(-c2cc(C)c3c(n2)[C@]2(CCCO2)N(c2cnn(CC(F)(F)F)c2)C3=O)cc1OC` the pKi was > 7.00. `COc1ncc(-c2cc(C)c3c(n2)CN(c2cnn(C(C)(C)C#N)c2)C3=O)cc1OCC1CC1` was tested, and the pKi was > 7.00. `COc1cc(-c2cc(C)c3c(n2)CN(c2cncc(CN(C)C)c2)C3=O)cnc1OC` was tested, and the pKi was > 7.00. For `Cc1cc(-c2cncc(OCC(F)(F)F)c2)nc2c1C(=O)N(c1cnn(CC(F)F)c1)C2`, the pKi was > 7.00. With `COc1cc(-c2ccc3c(n2)CN(c2ccnc(C(C)(C)C#N)c2)C3=O)cnc1OC` the pKi was > 7.00. `COc1cc(-c2ccc3c(n2)CN(c2ccc(=O)n(CC#N)c2)C3=O)cnc1OC` was tested, and the pKi was > 7.00. For `COc1ccc(-c2cc(C)c3c(n2)CN(c2cnn(CC(F)(F)F)c2)C3=O)s1`, the pKi was > 7.00. `Cc1cc(-c2cncc(OC(C)C)c2)nc2c1C(=O)N(c1cnn(CC(F)(F)F)c1)C2` was tested, and the pKi was > 7.00. `Cc1cc(-c2cncc(NS(=O)(=O)c3ccc(F)cc3F)c2)nc2c1C(=O)N(c1cnn(CC(F)(F)F)c1)C2(C)C` was tested, and the pKi was > 7.00. For `COc1cc(-c2ccc3c(n2)C(C)N(c2ccnc(C(C)C#N)c2)C3=O)cnc1OC` (stereo not given), the pKi was > 7.00. `COc1cc(-c2cc3c(c(C)n2)C(=O)N(c2cnn(CC(F)(F)F)c2)C3C)cnc1OC` (stereo not given) was tested, and the pKi was > 7.00. With `COc1cc(-c2cc(C)c3c(n2)CN(c2ccc(OCC(F)(F)F)nc2)C3=O)cnc1OC` the pKi was > 7.00. For `COc1cc(-c2ccc3c(n2)CN(c2cnn(Cc4ccncc4)c2)C3=O)cnc1OC`, the pKi was > 7.00. In the case of `COc1cc(-c2cc(C)c3c(n2)CN(c2cn[nH]c2)C3=O)cnc1OC`, the pKi was > 7.00. For `COc1ncc(-c2cc(C)c3c(n2)C(C)N(c2cnn(CC(F)(F)F)c2)C3=O)cc1C(=O)NC(C)C` (stereo not given), the pKi was > 7.00. For `CCOCCCOc1cc(-c2cc(C)c3c(n2)CN(c2cnn(CC(F)(F)F)c2)C3=O)cnc1OC`, the pKi was > 7.00. For `COc1cc(-c2ccc3c(n2)CN(c2cnn(CCC#N)c2)C3=O)cnc1OC`, the pKi was > 7.00. With `COCCC1c2nc(-c3cnc(OC)c(OC)c3)cc(C)c2C(=O)N1c1cnn(CC(F)(F)F)c1` (stereo not given) the pKi was > 7.00. Compound `COc1cc(-c2ccc3c(n2)CN(c2ccnc(N(C)CCCN(C)C)c2)C3=O)cnc1OC` has a pKi of 6.31 to 7.00. With `CCn1cc(N2Cc3nc(-c4cnc(OC)c(OCC(F)F)c4)cc(C)c3C2=O)cn1` the pKi was > 7.00. `COc1cc(-c2ccc3c(n2)CN(c2ccc(CN4CCOCC4)nc2)C3=O)cnc1OC` showed a pKi of 6.31 to 7.00. For `COc1cc(-c2ccc3c(n2)CN(c2cnn(CC(N)=O)c2)C3=O)cnc1OC`, the pKi was > 7.00. For `COc1cncc(-c2cc(C)c3c(n2)[C@@H](C)N(c2ccn(CC(C)(C)O)n2)C3=O)c1`, the pKi was > 7.00. `CCc1cc(N2Cc3nc(-c4cnc(OC)c(OC)c4)ccc3C2=O)nn1C` was tested, and the pKi was > 7.00. For `COCCNC(=O)c1cncc(-c2cc(C)c3c(n2)C(C)(C)N(c2cnn(CC(F)(F)F)c2)C3=O)c1`, the pKi was > 7.00. `COc1cc(-c2ccc3c(n2)C(C)(C)N(c2cnn(CC(F)(F)F)c2)C3=O)cnc1OC` was tested, and the pKi was > 7.00. `COc1cncc(-c2cc(C)c3c(c2)CN(c2cnn(CC(F)(F)F)c2)C3=O)c1` was tested, and the pKi was > 7.00. `COc1cc(-c2ccc3c(n2)C(C)N(c2cncc(C(C)(C)C#N)c2)C3=O)cnc1OC` (stereo not given) showed a pKi of 6.31 to 7.00. In the case of `Cc1cc(-c2cncc(OCC(F)(F)F)c2)nc2c1C(=O)N(c1cnn(CC#N)c1)C2(C)C`, the pKi was > 7.00. In the case of `Cc1cc(-c2cncc(C(=O)NC(C)C)c2)nc2c1C(=O)N(c1cnn(CC(F)(F)F)c1)C2(C)C`, the pKi was > 7.00. `COc1cc(-c2ccc3c(c2)CN(c2ccn(CC#N)n2)C3=O)cnc1OC` was tested, and the pKi was > 7.00. For `COc1cc(-c2ccc3c(n2)C(N2CC(OC)C2)N(c2cnn(CC(F)(F)F)c2)C3=O)cnc1OC` (stereo not given), the pKi was 6.31 to 7.00. In the case of `COc1ccc(-c2cc(C)c3c(n2)CN(c2cnn(CC(F)(F)F)c2)C3=O)c(OC)c1`, the pKi was 6.31 to 7.00. `COc1cc(-c2ccc3c(n2)CN(c2cncc(C(C)(C)O)c2)C3=O)cnc1OC` was tested, and the pKi was > 7.00. In the case of `CCCNC(=O)c1cncc(-c2cc(C)c3c(n2)C(C)(C)N(c2cnn(CC(F)(F)F)c2)C3=O)c1`, the pKi was > 7.00. With `COc1ccc(-c2cc(C)c3c(n2)CN(c2cnn(CC#N)c2)C3=O)nc1OC` the pKi was > 7.00. In the case of `COc1cc(-c2ccc3c(n2)CN(c2cnn(CCn4nc(C)cc4C)c2)C3=O)cnc1OC`, the pKi was 6.31 to 7.00. With `COc1cc(-c2cc(C)c3c(n2)C(C)N(c2cnn(CC(F)F)c2)C3=O)cnc1OC` (stereo not given) the pKi was > 7.00. In the case of `CCn1ccc(N2C(=O)c3c(C)cc(-c4cncc(OCC(F)F)c4)nc3[C@H]2C)n1`, the pKi was > 7.00. `CCn1cc(N2C(=O)c3ccc(-c4cnc(OC)c(OC(F)F)c4)nc3C2C)cn1` (stereo not given) was tested, and the pKi was > 7.00. In the case of `CCOc1cc(-c2cc(C)c3c(n2)CN(c2ccon2)C3=O)cnc1OC`, the pKi was > 7.00. For `Cc1cc(-c2ccc(Cl)c(O)c2)nc2c1C(=O)N(c1cnn(CC(F)(F)F)c1)C2`, the pKi was > 7.00. With `COc1cc(OC)cc(-c2cc(C)c3c(n2)C(C)N(c2cnn(CC(F)(F)F)c2)C3=O)c1` (stereo not given) the pKi was > 7.00. `COc1cc(-c2ccc3c(n2)CN(c2cnn(CC(C)O)c2)C3=O)cnc1OC` (stereo not given) was tested, and the pKi was > 7.00. `COc1cc(-c2cc(N3CCC3)c3c(n2)CN(c2cnn(CC(F)(F)F)c2)C3=O)cnc1OC` was tested, and the pKi was > 7.00. With `COc1cc(-c2ccc3c(n2)CN(c2cnn([C@H](CO)C(F)(F)F)c2)C3=O)cnc1OC` the pKi was > 7.00. For `Cc1cc(-c2cncc(OCC(F)F)c2)nc2c1C(=O)N(c1ccn([C@H]3CCOC3)n1)C2`, the pKi was > 7.00. `Cc1cc(-c2cncc(S(=O)(=O)C(C)C)c2)nc2c1C(=O)N(c1cnn(CC(F)(F)F)c1)C2(C)C` was tested, and the pKi was > 7.00. With `COc1cc(-c2cc(C)c3c(n2)CN(c2cnn(CC(F)(F)F)c2)C3=O)ccc1Cl` the pKi was > 7.00. `COc1cc(-c2ccc3c(n2)CN(c2cnn(CC(F)(F)F)c2)C3=O)cnc1OC(F)F` showed a pKi of 6.31 to 7.00. In the case of `COc1cc(-c2cc(C)c3c(n2)C(C)(C)N(c2cnn(CC(F)(F)F)c2)C3=O)cnc1OC`, the pKi was > 7.00. In the case of `Cc1cc(-c2cncc(OC(F)F)c2)nc2c1C(=O)N(c1cnn(C[C@H](C)O)c1)C2`, the pKi was > 7.00.
